Patent publication US20070269379A1, “Penetration Enhancer Combinations for Transdermal Delivery” (priority 2003, published 2007)

Assays:
hairless rat skin = experiment: Skin observation and histology after patch application in hairless rats; type: in vivo; conditions: skin excised after removing the patch, hematoxylin staining
[1] = tested on: EpiDerm, a cell culture of normal human derived epidermal keratinocytes; experiment: MTT uptake assay of irritation potential on EpiDerm cultures; type: cell-based; conditions: 4 hrs exposure, vehicle 1:1 PBS:EtOH
Experimental: Experiments to assess irritation potential were performed on the binary pairs of library CPEs at the compositions that yielded the maximum ER value in the screening experiments using the methyl thiazol tetrazolium (MTT) uptake assay. Irritation potential was estimated using EpiDermTM (MatTek Co., MA, USA, […].com), a cell culture of normal human derived epidermal keratinocytes. EpiDermTM cultures were stored and handled according to the standard protocol MTT-ET-50 (MatTek Co., MA, USA, […].com). To study the effect of the test formulations on cell viability, cell cultures were exposed to 10 μl of each test formulation for 4 hrs. Each test formulation was analyzed in duplicate. At the end of 4 hrs the assay medium was removed and stored aside at -70° C. for Interleukin-1α assay. The cell cultures were rinsed clear of the test formulations using PBS and incubated with 300 μL of MTT reagent (MatTek Co., MA, USA) for 3 hrs at 37° C. and 5% CO2. At the end of the incubation period the cell cultures were treated with 2 ml of extracting media (provided by MatTek Co) for 2 hrs. 200 μL of this extraction media was then sampled and its optical density (or absorbence) was measured at 570 nm wavelength. The optical absorbance data was then used to calculate the percentage cell viability as recommended in the MTT-ET-50 protocol.

| Structure (SMILES) | histology: state of the stratum corneum (hairless rat skin) | irritation potential (IP) [1] [%] |
| --- | --- | --- |
| CCCCCCCCCCCCOS(=O)(=O)[O-].[Na+] [SLS, Sodium Lauryl Sulfate] | completely detached | – |
| CCCCCCCC/C=C\CCCCCCCC(=O)O [oleic acid] | – | 14.5 |
